Results published in US20260042754A1, “Substituted Bicyclic Heteroaryl Sulfonamide Derivatives for the Treatment of Cancer” (NODUS ONCOLOGY LIMITED, priority 2022, published 2026).
Where two headings read alike, the source gives them in different places.

Key:
NCI-H1650 = experiment: Modified cell proliferation assay (CellTiter-Glo), NCI-H1650; type: cell-based; conditions: modified protocol, 384-well, 300 cells per well, 120 h, highest concentration tested 30000 nM, read-out: NCI-H1650 GI50 (high PARG dependency)
Method: The cell proliferation assay protocol was modified and used for RMUG-S for Examples 12-44, and subsequently used to test Examples 1-44 in the NCI-H1650 cell line.
NCI-H1650 (ATCC, #CRL-5883) or RMUG-S were seeded on day 1 at 300 cells per well in a 384-well plate (Greiner, #781080) that assure assay linearity and optimal signal intensity in 25 μL of RPMI1640 media (Pan Biotech, #P04-22100) containing 10% FCS (Capricorn, #FBS-11A; Lot. CP22-5141) and 1% Glutamine (Pan Biotech, #P04-80100). After incubation for 24 h in humidified chambers at 37° C./5% CO2, compounds/DMSO were dispensed at different concentrations using an Echo 520 (Beckman Coulter). Cells were further incubated for 120 h at 37° C. and 5% CO2. Cells treated with the compound vehicle DMSO were used as negative controls and cells treated with 10 μM Staurosporine (LC Laboratories, #S-9300) served as positive controls.
At day 6 the CellTiter Glo Reagent was prepared according to the instructions of the kit (Promega Inc.): Reagent was mixed 1:1 with cell culture medium. Thereon, mixture and assay plates were equilibrated at room temperature for 20 min. Equal volumes of the reagent-medium-mixture were added to the volume of culture medium present in each well. The plates were mixed at […] for 2 minutes on an orbital shaker (Timix5, Edmund Buehler GmbH). The microplates were then incubated at room temperature for 10 minutes for stabilization of the luminescent signal. Following incubation, the luminescence was recorded on a Victor X5 microplate reader (Perkin Elmer) using a 200 ms integration time. The data was then analyzed with Excel using the XLFIT Plugin (dose response Fit 205) for determination of the concentration necessary for half-maximal inhibition (i.e. the inflection point of the fitted curve).
As quality control the Z′-factor was calculated from 16 positive and negative control values. Only assay results showing a Z′-factor≥0.5 were used for further analysis.

[1] = target: human PARG (PARG-NanoLuc fusion in HEK293T cells) (Homo sapiens (Human), UniProt Q86W56); experiment: PARG NanoBRET-based cellular target engagement assay; type: cell-based; conditions: HEK293T cells transfected with PARG-NanoLuc, NanoBRET probe 0.89 μM, 2 hours; read-out: PARG TE IC50
Sequence of human PARG (PARG-NanoLuc fusion in HEK293T cells) (Q86W56 whole entry, the tested form may be a part): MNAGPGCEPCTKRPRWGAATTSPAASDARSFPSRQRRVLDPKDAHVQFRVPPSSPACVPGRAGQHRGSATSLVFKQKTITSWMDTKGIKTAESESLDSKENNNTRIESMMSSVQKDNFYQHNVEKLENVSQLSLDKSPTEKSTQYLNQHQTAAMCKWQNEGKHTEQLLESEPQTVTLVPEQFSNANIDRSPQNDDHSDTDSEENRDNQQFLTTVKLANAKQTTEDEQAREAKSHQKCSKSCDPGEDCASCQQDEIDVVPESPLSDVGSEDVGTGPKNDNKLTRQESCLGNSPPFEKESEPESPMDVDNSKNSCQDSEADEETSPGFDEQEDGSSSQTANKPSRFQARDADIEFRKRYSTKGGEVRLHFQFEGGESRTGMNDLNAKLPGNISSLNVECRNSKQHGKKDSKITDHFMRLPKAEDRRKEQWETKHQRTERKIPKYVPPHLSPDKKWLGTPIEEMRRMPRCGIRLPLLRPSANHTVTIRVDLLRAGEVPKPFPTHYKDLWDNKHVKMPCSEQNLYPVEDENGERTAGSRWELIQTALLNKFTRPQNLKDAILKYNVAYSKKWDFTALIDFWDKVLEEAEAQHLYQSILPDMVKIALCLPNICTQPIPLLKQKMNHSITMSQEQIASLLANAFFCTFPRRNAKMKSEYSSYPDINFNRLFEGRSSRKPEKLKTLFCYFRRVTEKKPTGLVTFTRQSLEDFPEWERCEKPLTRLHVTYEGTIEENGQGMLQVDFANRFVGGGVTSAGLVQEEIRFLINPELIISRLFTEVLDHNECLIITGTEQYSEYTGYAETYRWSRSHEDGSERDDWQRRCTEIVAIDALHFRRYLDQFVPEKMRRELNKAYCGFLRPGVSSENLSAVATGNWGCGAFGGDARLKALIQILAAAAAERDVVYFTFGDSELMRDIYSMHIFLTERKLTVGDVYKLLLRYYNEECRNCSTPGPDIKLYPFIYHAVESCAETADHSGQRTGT
Method: PARG Nano-luciferase construct: The PARG-NanoLuc® fusion vector was generated by Promega, by inserting the full length human PARG cDNA sequence encoding the 976 amino acid protein (Gene ID: 8505, UniProt: Q86W56) into the pNLF1-C [CMV/Hygro] vector (C-terminal fusions with NanoLuc® enzyme).
PARG target engagement tracer synthesis: The NanoBRET tracer for PARG was prepared following a previously reported general tracer synthesis procedure.
PARG Probe Displacement Assay Using NanoBRET: HEK293T (DSMZ #ACC 635) cells transiently transfected with the PARG-NanoLuc fusion construct were resuspended in phenol red-free OptiMEM (Gibco #11058-021) to a concentration of 2.4×10^5 cells/mL. 9 μL per well were then added to a white 384-well low volume microplate (Greiner #784080) and incubated for 24 hours under standard growth conditions.
Then compound was dispensed into each well using an Echo dispenser (BeckmanCoulter) to yield the pre-specified final concentration of the range of concentrations to be tested (typically 8-point serial concentrations ranging from either from 0.01 to 10 μM, or from 0.001 to 1 μM, or from 0.0001 to 0.1 μM), and being volume-corrected with 100% DMSO (0.5% final DMSO concentration in reaction mixtures).
After mixing and an incubation at room temperature for 15 min 1 μl of the NanoBRET probe (at 0.89 μM final concentration) was added to the microplate using a multichannel pipette. The plate was mixed and incubated in a 5% CO2 environment at 37° C. for 2 hours, and then 5 μL per well of a solution consisting of a 1:31.25 dilution of Nano-Glo substrate (Promega) and a 1:500 dilution of NanoLuc extracellular inhibitor (Promega) in phenol red-free OptiMEM was added to each well followed by another mixing step. Filtered luminescence was measured on an EnVision plate reader (PerkinElmer) equipped with a 460 nm filter (donor) and a 645 nm filter (acceptor). BRET ratios were plotted as concentration-response curves fitted to a sigmoidal 4-parameter logistic model to calculate IC50 values (Scigilian Analyze).

[2] = target: Recombinant His-tagged human PARG protein (Homo sapiens (Human), UniProt Q86W56); experiment: PARG enzymatic assay (TFMU-ADPr fluorescence); type: biochemical; conditions: 1 nM enzyme, 200 μM TFMU-ADPr, read after 30 minutes
Sequence of Recombinant His-tagged human PARG protein (Q86W56 whole entry): as the sequence (Q86W56 whole entry, the tested form may be a part) above
Method: Inhibition of PARG enzymatic activity by compounds was determined as follows: Recombinant His-tagged human PARG protein expressed in Sf21 insect cells (Adipogen AG, #40T-0022) was aliquoted and stored at −80° C. until use. The artificial enzyme substrate 4-(trifluoromethyl)umbelliferone (TFMU)-ADPr was prepared essentially as described (Drown B S et al, Cell Chemical Biology 2018) and stored at −20° C. as 10 mM stock solutions in DMSO (dimethyl sulfoxide) until use. For reactions, typical final concentration of the enzyme was 1 nM and of the TFMU-ADPr 200 μM. Reactions were carried out in black 384-well low volume round bottom assay plates (Corning, #4514) in a final volume of 10 μL. To this end, PARG was diluted to 1.67 nM in reaction buffer (50 mM K2HPO4, 50 mM KCl, 10 mM β-mercaptoethanol, pH 7.4) and 6 μL were dispensed per assay well using a multichannel pipette. Then compound was dispensed into each well using an Echo dispenser (BeckmanCoulter) to yield the pre-specified final concentration of the range of concentrations to be tested (typically 8-point serial concentrations ranging from either from 0.01 to 10 μM, or from 0.001 to 1 μM, or from 0.0001 to 0.1 μM), and being volume-corrected with 100% DMSO (0.5% final DMSO concentration in reaction mixtures). Plates were mixed, and after 15 minutes 4 μL TFMU-ADPr was added into each well using a multichannel pipette followed by brief mixing. Fluorescence intensity signals were then measured after 30 minutes on an EnVision microplate reader (PerkinElmer) using 380/10 nm and 535/25 nm filters for the excitation and emission, respectively (gain: 150). The assay window was set using DMSO control (top) and a control containing no PARG enzyme (bottom). Delta values were plotted as concentration-response curves fitted to a sigmoidal 4-parameter logistic model to calculate IC50 values (Scigilian Analyze).

Compound | GI50 (NCI-H1650; Homo sapiens, NCI-H1650) [nM] | IC50 [1] [nM] | IC50 [2] [nM] | GI50 (NCI-H1650) [nM]
CO/N=c1\[nH]c2c(N3CCN(C(=O)C4(N(C)C)CC4)[C@H](C)C3)cc(S(=O)(=O)NC3(C)CC3)cc2c(=O)n1Cc1cnn(C)c1 [Example 34, (R,E)-8-(4-(1-(dimethylamino)cyclopropane-1-carbonyl)-3-methylpiperazin-1-yl)-2-(methoxyimino)-3-((1-methyl-1H-pyrazol-4-yl)methyl)-N-(1-methylcyclopropyl)-4-oxo-1,2,3,4-tetrahydroquinazoline-6-sulfonamide] | < 500 | < 30 | < 30 | 
CO/N=c1\[nH]c2c(-c3ccc(CN)cc3)cc(S(=O)(=O)NC3(C)CC3)cc2c(=O)n1Cc1cnn(C)c1 [Example 17, (E)-8-(4-(aminomethyl)phenyl)-2-(methoxyimino)-3-((1-methyl-1H-pyrazol-4-yl)methyl)-N-(1-methylcyclopropyl)-4-oxo-1,2,3,4-tetrahydroquinazoline-6-sulfonamide] | > 2000 | 100 to 1000 | 30 to 99 | 
CO/N=c1\[nH]c2c(N3CCN(C(=O)C(C)C)[C@H](C)C3)cc(S(=O)(=O)NC3(C)CC3)cc2c(=O)n1Cc1cnn(C)c1 [Example 35, (R,E)-8-(4-isobutyryl-3-methylpiperazin-1-yl)-2-(methoxyimino)-3-((1-methyl-1H-pyrazol-4-yl)methyl)-N-(1-methylcyclopropyl)-4-oxo-1,2,3,4-tetrahydroquinazoline-6-sulfonamide] | < 500 | < 30 | < 30 | 
CO/N=c1\[nH]c2c(N3CCN(C(=O)N(C)C)[C@H](C)C3)cc(S(=O)(=O)NC3(C)CC3)cc2c(=O)n1Cc1cnn(C)c1 [Example 41, (R,E)-4-(2-(methoxyimino)-3-((1-methyl-1H-pyrazol-4-yl)methyl)-6-(N-(1-methylcyclopropyl)sulfamoyl)-4-oxo-1,2,3,4-tetrahydroquinazolin-8-yl)-N,N,2-trimethylpiperazine-1-carboxamide] | < 500 | < 30 | < 30 | 
CO/N=c1\[nH]c2c(N3CCN(C(=O)CC(F)(F)F)[C@H](C)C3)cc(S(=O)(=O)NC3(C)CC3)cc2c(=O)n1Cc1cnn(C)c1 [Example 31, (R,E)-2-(methoxyimino)-3-((1-methyl-1H-pyrazol-4-yl)methyl)-8-(3-methyl-4-(3,3,3-trifluoropropanoyl)piperazin-1-yl)-N-(1-methylcyclopropyl)-4-oxo-1,2,3,4-tetrahydroquinazoline-6-sulfonamide] | < 500 | < 30 | < 30 | 
CO/N=c1\[nH]c2c(-c3ccc(C(=O)N(C)C)cn3)cc(S(=O)(=O)NC3(C)CC3)cc2c(=O)n1Cc1cnn(C)c1 [Example 20, (E)-6-(2-(methoxyimino)-3-((1-methyl-1H-pyrazol-4-yl)methyl)-6-(N-(1-methylcyclopropyl)sulfamoyl)-4-oxo-1,2,3,4-tetrahydroquinazolin-8-yl)-N,N-dimethylnicotinamide] | 500 to 2000 | < 30 | < 30 | 
CO/N=c1\[nH]c2c(Cl)cc(S(=O)(=O)NC3(C)CC3)cc2c(=O)n1Cc1cnn(C)c1 [Example 4, 8-chloro-2-methoxyimino-N-(1-methylcyclopropyl)-3-[(1-methylpyrazol-4-yl)methyl]-4-oxo-1H-quinazoline-6-sulfonamide] | > 2000 | 30 to 99 | < 30 | 
CO/N=c1\[nH]c2c(-c3ccc(C(=O)C4(C)CC4)cc3)cc(S(=O)(=O)NC3(C)CC3)cc2c(=O)n1Cc1cnn(C)c1 [Example 18, (E)-2-(methoxyimino)-3-((1-methyl-1H-pyrazol-4-yl)methyl)-8-(4-(1-methylcyclopropane-1-carbonyl)phenyl)-N-(1-methylcyclopropyl)-4-oxo-1,2,3,4-tetrahydroquinazoline-6-sulfonamide] | 500 to 2000 | < 30 | < 30 | 
CO/N=c1\[nH]c2c(C3=C[C@@H](C)NCC3)cc(S(=O)(=O)NC3(C)CC3)cc2c(=O)n1Cc1cnn(C)c1 [Example 13, (R,E)-2-(methoxyimino)-8-(6-methyl-1,2,3,6-tetrahydropyridin-4-yl)-3-((1-methyl-1H-pyrazol-4-yl)methyl)-N-(1-methylcyclopropyl)-4-oxo-1,2,3,4-tetrahydroquinazoline-6-sulfonamide/(R,E)-2-(methoxyimino)-8-(2-methyl-1,2,3,6-tetrahydropyridin-4-yl)-3-((1-methyl-1H-pyrazol-4-yl)methyl)-N-(1-methylcyclopropyl)-4-oxo-1,2,3,4-tetrahydroquinazoline-6-sulfonamide] |  | 30 to 99 | < 30 | 500 to 2000
CO/N=c1\[nH]c2c(-c3ccc(C(=O)N(C)C)c(C)c3)cc(S(=O)(=O)NC3(C)CC3)cc2c(=O)n1Cc1cnn(C)c1 [Example 14, (E)-4-(2-(methoxyimino)-3-((1-methyl-1H-pyrazol-4-yl)methyl)-6-(N-(1-methylcyclopropyl)sulfamoyl)-4-oxo-1,2,3,4-tetrahydroquinazolin-8-yl)-N,N,2-trimethylbenzamide] | < 500 | < 30 | < 30 | 
CO/N=c1\[nH]c2c(N3CCN(C(=O)C4(C(F)(F)F)CC4)[C@H](C)C3)cc(S(=O)(=O)NC3(C)CC3)cc2c(=O)n1Cc1cnn(C)c1 [Example 32, (R,E)-2-(methoxyimino)-3-((1-methyl-1H-pyrazol-4-yl)methyl)-8-(3-methyl-4-(1-(trifluoromethyl)cyclopropane-1-carbonyl)piperazin-1-yl)-N-(1-methylcyclopropyl)-4-oxo-1,2,3,4-tetrahydroquinazoline-6-sulfonamide] | < 500 |  |  | 
